“Also recorded” adds a separate entry of the source. Read-outs that look alike come from different tables or passages of the source.
Experiments:
[1] = system: NTG induced mechanical allodynia; test: NTG-induced hind paw mechanical allodynia (migraine model); format: in vivo, mouse; conditions: for allodynia threshold compared to baseline threshold: 75 and 120 min
Method: NTG-induced hind paw mechanical allodynia. Mechanical thresholds were determined with von Frey monofilaments (VFF; eight filaments, range 0.008-2 g, Stoelting Co) using the Dixon up-and-down method^51. For drug testing, 48 naive C57Bl/6 male mice (20-30 g) were divided randomly to the following groups (n=12 mice per group): Vehicle/Cyclodextrin, Vehicle/Compound B 75 mg/kg, NTG/Cyclodextrin, and NTG/Compound B 75 mg/kg. Prior to testing all animals were handled for 1 week in the behavior room during mid-morning using the cupped hand technique^52. On each testing day, a maximum of 12 animals was used, divided equally into the four groups. Mice were confined in clear acrylic cages (8.7″×8.7″×5″) divided into four chambers, each on a raised wire mesh platform that allowed full access to the tested paws. Mice were acclimated for two hours, on the day of testing and one day prior. Mechanical thresholds were evaluated before (baseline), and 75 and 120 min after i.p. administration of 10 mg/kg NTG (or vehicle), in accordance with NTG's time-to-peak-effect (TPE) in this model (data not shown). 40% Cyclodextrin in saline or 75 mg/kg Compound B dissolved in 40% cyclodextrin in saline, was administered contralateral to NTG administration thirty minutes before the first post-NTG time point, in accordance with compound B's TPE. Each filament was applied perpendicular to the center of each of the hind paw five times, spaced 1 sec apart, starting with the middle VFF (0.4 g). In the absence of a response, the next VFF in the series was applied until a response was witnessed. Response to VFF was recorded as an immediate withdrawal of the tested hind paw to the applied stimulus, with or without an observed licking behavior. The withdrawal threshold was quantified as the mean of both hind paws. The experimenter was blind to the treatment group.

[2] = system: splanchnic colonic afferents (high-threshold mechanoreceptors); test: Ex vivo gut-nerve single-unit recordings; format: cell-based, mouse; conditions: for mechanosensitivity of colonic nociceptors: Compound B 100 μM; for Hm1a-induced mechanical hypersensitivity in the presence of the blocker: Hm1a 100 nM, ICA 500 nM or Compound B 100 μM
Method: In vitro single-unit extracellular recordings of action potential discharge were made from splanchnic colonic afferents. Recordings were made from healthy or CVH mice using standard protocols^61-63. Baseline mechanosensitivity was determined in response to application of a 2 g von frey hair (vfh) probe to the afferent receptive field for 3 seconds. This process was repeated 3-4 times, separated each time by 10 seconds. Mechanosensitivity was then re-tested after the application of Hm1a (100 nM) or the Nav1.1 blocker ICA-121432 (500 nM) or a combination of both ICA-121432 (500 nM) and Hm1a (100 nM). Data are presented as spikes/s and are expressed as mean±SEM.
Colitis was induced by administration of TNBS as described previously^62,63. Briefly, 13 week old anaesthetized mice were administered an intra-colonic enema of 0.1 mL TNBS (130 μg/mL in 30% EtOH) via a polyethylene catheter^62,63,66. Histological examination of mucosal architecture, cellular infiltrate, crypt abscesses, and goblet cell depletion confirmed significant TNBS-induced damage by day 3 post-treatment, which largely recovered by day 7, and fully recovered by 28 days. […] As such, they are termed ‘chronic visceral hypersensitivity’ (CVH) mice^62,63,66,68.
Ex vivo single-unit extracellular recordings of action potential discharge were made from splanchnic colonic afferents. Recordings were made from healthy or CVH mice using standard protocols (e.g. Brierley, S. M., Jones, R. C., III, Gebhart, G. F. & Blackshaw, L. A. Splanchnic and pelvic mechanosensory afferents signal different qualities of colonic stimuli in mice. Gastroenterology 127, 166-178 (2004)). Baseline mechanosensitivity was determined in response to application of a 2-g Von Frey hair probe to the afferent receptive field for 3 s. This process was repeated 3-4 times, separated each time by 10 s. Mechanosensitivity was then re-tested after the application of Hm1a (100 nM) or the Nav1.1 blocker compound B (100 μM) or a combination thereof. Instantaneous frequency is defined as the inverse of the time interval between an action potential and the previous action potential. Group data are presented as spikes per second and are expressed as mean±s.e.m.

[3] = system: cultured somatosensory neurons (TG, DRG); test: Ratiometric calcium imaging of cultured sensory neurons; format: cell-based, mice or rats
[4] = system: mechanical response thresholds; test: Von Frey mechanical response thresholds after intraplantar toxin; format: in vivo, mouse; conditions: 500 nM in 10 μl intraplantar, WT mice, 30 minutes after injection
Method: For behavioral experiments in FIG. 4, adult mice (6-12 weeks) were used. Male and female mice were first considered separately in hindpaw nocifensive response experiments. […] Therefore, male and female behavioral responses were pooled and subsequent experiments were performed on both male and female mice for CKO and WT littermate experiments, or only male mice for other conditions (e.g. Cap ablation). Nocifensive responses were recorded during a 20 minute observation period immediately following intraplantar injections (10 μl PBS with or without 5 μM Hm1a). Licking/biting behavior was scored as seconds of behavior with the experimenter blinded to injection condition and experimental cohort (WT, CKO or Cap Ablated mice). Hargreaves and Von Frey tests were performed 30 minutes after intraplantar injection of 500 nM Hm1a or Hm1b. I.t. cap ablation was performed as previously described^34, and i.t. cap treated mice were tested on a hot plate to ensure ablation of TRPV1+afferents. Ablation was also confirmed by histology.

[5] = Hm1a-sensitive P0 mouse TG neurons

`Cc1c(C(N)=O)nnn1Cc1ccccc1` [Compound B] was tested, and the “NTG induced tactile allodynia” value ([1]; Compound B 75 mg/kg in 40% cyclodextrin in saline) was “able to reverse NTG induced tactile allodynia”, the “allodynia threshold compared to baseline threshold” value ([1]; NTG 10 mg/kg i.p. + Compound B 75 mg/kg) was “no significant difference” and the “allodynia threshold compared to baseline threshold” value ([1]; Vehicle + Compound B 75 mg/kg) was “no significant difference”. The “mechanosensitivity of colonic nociceptors” value (“mechanosensitivity” below) ([2]; CVH mice, ICA-121431 500 nM) was “reduced mechanosensitivity in a sub-population; also recorded: inhibition of mechanosensitivity of a subpopulation”, the “Hm1a-induced mechanical hypersensitivity in the presence of the blocker” value (“Hm1a-induced mechanical hypersensitivity” below) ([2]; CVH mice) was “not affected by the presence of Hm1a; also recorded: prevents Hm1a-induced potentiation” and the “mechanosensitivity” value ([2]; healthy mice) was “inhibits the mechanosensitivity; also recorded: inhibition of mechanosensitivity of a subpopulation”. The “Hm1a-induced mechanical hypersensitivity” value ([2]; healthy mice) was “inhibits the sensitizing effect of Hm1a toxin; also recorded: prevents Hm1a-induced potentiation”.

With `O=C(Nc1ccc(S(=O)(=O)Nc2nccs2)cc1)C(c1ccccc1)c1ccccc1` [ICA-121431] the Hm1a-evoked calcium responses ([3]; blocker 500 nM, Hm1a 500 nM, embryonic DRG and P0 mouse TG cultures) was “greatly diminishes”, the “responses to SGTx1” value ([3]; in presence of ICA-121431) was “only partially blocks” and the “CVH sensitized fibers with reduced mechanosensory responses” value ([2]; CVH mice, blocker 500 nM) was 70%. The “subpopulation of CVH colonic afferents inhibited (inhibited/fibers)” value ([2]; CVH mice, blocker 500 nM) was 7/10, the “mechanosensitivity” value ([2]; CVH mice, ICA-121431 500 nM) was “levels resembling those of baseline controls” and the “Hm1a-induced mechanical hypersensitivity” value ([2]; CVH mice) was “blocks the sensitizing effects of Hm1a”. For the same molecule, the “Hm1a-induced mechanical hypersensitivity” value ([2]; CVH mice, listed as ICA-121432) was “failed to induce mechanical hypersensitivity”, the “fibers in which mechanical responses are reduced and Hm1a sensitization blocked” value ([2]; healthy mice, blocker 500 nM) was 50% and the “population of colonic afferents inhibited (inhibited/fibers)” value ([2]; healthy mice, blocker 500 nM) was 5/10. The “Hm1a-induced mechanical hypersensitivity” value ([2]; healthy mice) was “blocks Hm1a sensitization” and the “Hm1a-induced mechanical hypersensitivity” value ([2]; healthy mice, listed as ICA-121432) was “failed to induce mechanical hypersensitivity”.

With `NC1=N[C@H](O)[C@H]2[C@H]3O[C@]4(O)O[C@@H]([C@@H](O)[C@@]2(N1)[C@@H]4O)[C@]3(O)CO` [Tetrodotoxin] the Hm1a-evoked calcium responses [3] was “blocked”.

With `COc1cc(CNC(=O)CCCC/C=C/C(C)C)ccc1O` [capsaicin] the “toxin-sensitive P0 neurons that respond to the agonist (in words)” value [3, 5] was “only a third”.

In the case of `NC(N)=NC(N)=Nc1cccc(Cl)c1` [mCPBG], the “toxin-sensitive cells that also respond to the agonist” value [3, 5] is reported as 52%.

With `CC1CCC(C(C)C)C(O)C1` (centres unmarked) [menthol] the “toxin-sensitive cells that also respond to the agonist” value [3] was 38%.

For `C=CCN=C=S` [mustard oil], the “toxin-sensitive cells that also respond to the agonist” value [3, 5] was less than 13%.

In the case of `CCCCC[C@H](O)/C=C/[C@H]1[C@H](O)CC(=O)[C@@H]1C/C=C\CCCC(=O)O` [prostaglandin E2], the “percentage of toxin sensitive cells” value ([3]; sensitization of adult neurons prior to toxin exposure) is reported as “greatly enhances”.

With SGTx1 the “cohort of neurons excited compared with Hm1a” value ([3]; TG and embryonic DRG neurons) was “excites a larger cohort of TG and embryonic DRG neurons than Hm1a”.

δ-theraphotoxin-Hm1b was tested, and the “sensitization to mechanical stimulation” value [4] was “Equivalent mechanical sensitization”.
